From patent US9266817B2, “Catecholamine derivatives for obesity and neurological disorders” (EMORY UNIVERSITY, priority 2009, dated 2016)
Entries after “also recorded” stand apart in the source; their conditions may differ.

Experiments:
TrkB F616A knockin mice = test: Kainic acid-induced neuronal apoptosis in TrkB F616A knockin mice (immunoblotting and Caspase-3 ELISA); assay type: in vivo; conditions: 50 mg/kg orally 2 hours before KA 20 mg/kg
Description: To determine whether Compound I-11 (ADPP) and Compound I-8 (DDAP) protect neurons from KA-induced apoptosis, TrkB F616A knockin mice were pretreated with inhibitor 1NMPP1 (16.6 ng/kg) 2 days before the experiment. Compound I-8 (DDAP) or Compound I-11 (ADPP) (50 mg/kg) was orally injected into the mice 2 hours before kainic acid (KA) administration (20 mg/kg). Brain lysates were analyzed by immunoblotting and Caspase-3 ELISA. […] The extent of the protective effect correlates with TrkB activation status by these compounds. Active Caspase-3 ELISA correlated with the immunoblotting results (FIG. 28B, right panel).

TrkB [1] = test: TrkB activation in mouse brain after administration of catecholamine derivatives (anti-p-TrkB-Y-816 immunoblot); assay type: in vivo; conditions: for Time at which TrkB activity peaked: 50 mg/kg orally; for TrkB activation in the brains of the mice: 50 mg/kg orally (in saline), C57BL/6J mice; for Oral bioavailability: mice; for Minimal dosage required to activate TrkB: orally, mice sacrificed after 4 hours; for TrkB activation in mouse brains: via drinking water or intraperitoneal injection
Description: To explore whether these compounds could stimulate TrkB in vivo, 50 mg/kg of Compound I-11, Compound I-8, and Compound I-2 (2-(methylamino)-3′,4′-dihydroxy-acetophenone) were each orally administered (in saline) to 2-month-old C57BL/6J mice. The mice were sacrificed at different time points and TrkB activation in the brains of the mice was monitored by immunoblotting with anti-p-TrkB-Y-816 antibody.
To determine the minimal required dosages for Compound I-11 and Compound I-8, different doses of the compounds were each orally administered to mice. The mice were sacrificed after 4 hours, and the brain lysates were analyzed by immunoblotting with anti-p-TrkB-Y-816 antibody.
To search for orally bioactive catecholamines, catecholamine derivatives described herein were screened using primary neuronal cultures. The in vitro active compounds, Compounds I-8 and I-11, were adminstered into two to three month old C57BL/6J mice orally, intraperitoneally, and in drinking water. For oral administration, the mice were administered 0 mg (control), 5 mg, 10 mg, 20 mg, or 50 mg of Compound I-8 or Compound I-11. After 4 hours, TrkB phosphorylation in mouse brain was monitored by analyzing the brain lysates using immunoblotting with anti-p-TrkB-Y-816 antibody. The ratios of p-TrK/total TrkB were quantified (FIG. 27A). For intraperitoneal administration, 50 mg/kg of Compound I-8 or Compound I-11 were intraperitoneally injected into the mice. The brain lysates were prepared at different times (0 hr, 1 hr, 2 hr, 4 hr, and 8 hr) and were analyzed by immunoblotting with anti-p-TrkB-Y-816 antibody (FIG. 27B). Compound I-8 and Compound I-11 were dissolved in drinking water and given to mice. After 24 h, the brain lysates were prepared and analyzed by immunoblotting with anti-p-TrkB-Y-816 antibody (FIG. 27C). […] Therefore, these compounds are useful in treating various neurological or neuropsychiatric diseases as described herein.

TrkB [2] = target: T1, TrkB (Rattus norvegicus, UniProt Q63604); test: Screening of catecholamine derivatives for TrkB activation in primary cortical neurons (anti-p-TrkB-Y-816 immunoblot); assay type: cell-based; conditions: 500 nM, 30 min
T1 construct: endogenous in cells; host or cells: primary rat cortical and hippocampal neurons
T1 sequence (Q63604 32-821): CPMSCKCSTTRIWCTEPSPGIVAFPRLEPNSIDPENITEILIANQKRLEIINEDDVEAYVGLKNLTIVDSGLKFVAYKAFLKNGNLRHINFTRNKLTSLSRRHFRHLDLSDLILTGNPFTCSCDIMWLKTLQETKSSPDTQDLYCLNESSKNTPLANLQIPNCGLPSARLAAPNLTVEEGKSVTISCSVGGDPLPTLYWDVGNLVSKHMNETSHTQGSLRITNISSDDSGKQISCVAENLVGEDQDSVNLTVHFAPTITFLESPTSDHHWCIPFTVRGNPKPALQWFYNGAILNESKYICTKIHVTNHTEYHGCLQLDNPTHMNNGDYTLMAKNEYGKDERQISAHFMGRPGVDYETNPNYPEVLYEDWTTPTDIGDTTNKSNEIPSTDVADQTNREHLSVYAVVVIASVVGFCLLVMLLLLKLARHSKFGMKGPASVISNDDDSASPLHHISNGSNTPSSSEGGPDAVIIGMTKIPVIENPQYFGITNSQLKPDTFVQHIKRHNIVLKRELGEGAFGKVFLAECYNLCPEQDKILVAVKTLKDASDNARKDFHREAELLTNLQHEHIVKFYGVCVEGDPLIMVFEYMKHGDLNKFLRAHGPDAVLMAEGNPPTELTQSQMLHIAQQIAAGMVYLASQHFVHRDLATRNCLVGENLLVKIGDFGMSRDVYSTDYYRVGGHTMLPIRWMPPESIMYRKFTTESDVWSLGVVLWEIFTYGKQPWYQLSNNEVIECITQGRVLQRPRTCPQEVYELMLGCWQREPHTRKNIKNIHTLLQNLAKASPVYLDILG
Description: Catecholamines can directly bind to the kinase domain of the TrkB receptor and activate it. However, the catecholamines are not able to cross through the blood brain barrier. […] Cortical neurons (7 DIV cortical neurons from 18 day old Sprague Dawley rat embryos) were treated with 500 nM of the selected compound for 30 min and cell lysates were prepared. The cell lysates ([…]) were analyzed for TrkB activation by immunoblotting with anti-p-TrkB-Y-816 antibody.
Catecholamine derivatives as described herein, including Compound I-2, Compound I-5, Compound I-7, Compound I-8, Compound I-9, Compound I-10, Compound I-11, Compound I-14, Compound I-15, Compound I-17, Compound I-18, and isoproterenol, were screened for TrkB activation in primary cortical neurons. Cortical neurons (7 DIV cortical neurons from 18 day old Sprague Dawley rat embryos) were treated with 500 nM of the selected compound for 30 min and cell lysates were prepared. The cell lysates ([…]) were analyzed for TrkB activation by immunoblotting with anti-p-TrkB-Y-816 antibody.

TrkB F616A [3] = target: T2, TrkB F616A (Mus musculus, UniProt P15209, F616A); test: TrkB phosphorylation in TrkB F616A or TrkA F592A cortical neurons pretreated with K252a or 1NMPP1; assay type: cell-based, mice; conditions: primary TrkB F616A cortical neurons, 100 nM inhibitor 30 min, 500 nM compound
T2 construct: endogenous in cells; host or cells: primary cortical neurons from TrkB F616A knock-in mice
T2 sequence (P15209 32-821 F616A): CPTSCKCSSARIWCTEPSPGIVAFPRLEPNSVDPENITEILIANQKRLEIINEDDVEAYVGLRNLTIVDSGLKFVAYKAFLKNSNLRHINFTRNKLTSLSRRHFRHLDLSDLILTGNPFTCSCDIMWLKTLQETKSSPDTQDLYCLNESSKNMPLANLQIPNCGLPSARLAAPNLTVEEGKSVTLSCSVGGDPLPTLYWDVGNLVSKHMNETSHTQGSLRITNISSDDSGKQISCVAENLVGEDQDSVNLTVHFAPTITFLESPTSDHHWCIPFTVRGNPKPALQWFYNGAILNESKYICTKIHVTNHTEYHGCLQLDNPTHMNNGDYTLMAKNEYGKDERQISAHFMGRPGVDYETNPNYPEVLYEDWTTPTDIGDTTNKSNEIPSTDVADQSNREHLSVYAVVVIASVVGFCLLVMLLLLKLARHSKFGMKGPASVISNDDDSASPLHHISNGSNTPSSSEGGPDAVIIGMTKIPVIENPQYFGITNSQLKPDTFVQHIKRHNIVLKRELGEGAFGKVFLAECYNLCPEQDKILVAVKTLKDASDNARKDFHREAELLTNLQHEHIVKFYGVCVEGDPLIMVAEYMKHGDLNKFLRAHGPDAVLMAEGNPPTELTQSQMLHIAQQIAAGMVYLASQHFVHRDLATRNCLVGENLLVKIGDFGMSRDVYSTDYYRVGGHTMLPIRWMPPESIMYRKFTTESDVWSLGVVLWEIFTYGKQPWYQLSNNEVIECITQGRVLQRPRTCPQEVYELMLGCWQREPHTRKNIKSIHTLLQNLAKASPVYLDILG
Description: (§1) TrkB F616A mice were pretreated with 1NMPP1 (50 μM) before L-DOPA or DOPS administration.
(§2) On day 7, the primary cortical neurons were pretreated with 100 nM K252a or 1NMPP1 for 30 min, followed by 500 nM ADPP and DDAP. Cell lysates were analyzed by Western blotting.

mice = test: Forced swim test; assay type: in vivo; conditions: for Swimming immobility: 20 mg/kg intraperitoneally, adult male mice; for Immobility time after 1NMPP1 treatment: TrkB F616A knockin mice, 1NMPP1 pretreatment
Description: Accumulating evidence supports that BDNF plays an essential role in mediating antidepressants' therapeutic effects. Infusion of exogenous BDNF into hippocampus or brain stem has antidepressant-like behavioral effect. A forced swim test is broadly used for screening of potential antidepressant drugs and is widely used to measure antidepressant activity. To explore whether Compound I-11 (ADPP) and Compound I-8 (DDAP) have antidepressant effects like BDNF, forced swim tests were conducted. Adult male mice (2-3 months old, n=8) were randomly submitted, without a pre-swim, to a forced swim test of 6 minutes with immobility recorded in the last 4 minutes. Mice were injected intraperitoneally with saline, Compound I-11 (20 mg/kg), or Compound I-8 (20 mg/kg). The mice were allowed to adapt to the test room for 2 days, and the mice were placed in a clear glass cylinder with a diameter of 16 cm, half-filled with clear water at 24° C.
To assess whether the behavior responses caused by catecholamine derivatives is mediated by TrkB receptor, TrkB F616A knockin mice were utilized. The mice were subjected to saline or 1NMPP1 inhibitor pretreatment.

TrkB F616A [4] = target: T3, TrkB F616A (Mus musculus, UniProt P15209); test: TrkB phosphorylation in TrkB F616A or TrkA F592A cortical neurons pretreated with K252a or 1NMPP1; assay type: cell-based, mice
T3 construct: endogenous in cells; host or cells: primary cortical neurons from TrkB F616A knock-in mice
T3 sequence (P15209 32-821 F616A): as above
Description: as §1, §2

TrkB [5] = target: T1, TrkB; test: Immunoblotting of TrkB phosphorylation in primary cortical neurons treated with catecholamines; assay type: cell-based; conditions: cortical neurons
Description: Primary cultured rat cortical neurons were prepared as follows. E17 rat pups were decapitated and cortex was extirpated, cross chopped and suspended by pipetting for separation in 5% fetal calf serum (FCS), 5% horse serum (HS) DMEM. The cell suspension was then centrifuged at 250×g for 5 min. This operation was repeated. Cells were seeded into polyethyleneimine-coated 10 cm^2 dishes and 12-well plates including coated-coverslips and incubated at 37° C. in 5% CO2/95% air. After 3 hours, the culture medium was changed to Neurobasal containing B-27 supplement (Invitrogen; Carlsbad, Calif.) and incubated for 4 days. For maintenance, half of the culture medium was changed to fresh Neurobasal/B27 in every 4 days. After 1 week, the dished cultured neurons were ready for use.
To explore whether monoamine neurotransmitters, including catecholamines (see, e.g., FIG. 1), could stimulate TrkB activation, hippocampal neurons were treated with 300 nM of catecholamines, serotonin, and melatonin for 30 min.

[6] = test system: TrkB F616A cortical neurons; test: Glutamate-provoked apoptosis of TrkB F616A cortical neurons (TUNEL assay); assay type: cell-based, mice; conditions: 50 mM glutamate overnight
Description: Norepinephrine has neuroprotective activity against oxidative stress-induced neuronal apoptosis. To investigate whether this protective action by norepinephrine is mediated through TrkB, apoptosis of TrkB F616A cortical neurons was monitored. Primary cortical neurons were pretreated with inhibitors K252a or 1NMPP1 followed by overnight treatment with 50 mM glutamate.

TrkB [7] = target: T1, TrkB; test: TrkB activation in cortical neurons after pretreatment with antibodies, receptor antagonists, transporter inhibitors or EDTA (anti-p-TrkB-Y-816 immunoblot); assay type: cell-based
Description: Both antidepressants and exercise increase hippocampal BDNF mRNA expression through enhanced 5-HT and/or NE neurotransmission (Siuciak et al., Pharmacol. Biochem. Behav., 56:131-137, 1997; Dias et al., Neuropharmacology, 45:553-563, 2003; Ivy et al., Pharmacol. Biochem. Behav., 75:81-88, 2003; Garza et al., Pharmacol. Biochem. Behav., 77:209-220, 2004). If catecholamines activated TrkB signaling indirectly by promoting BDNF generation, then scavenging BDNF with its specific antibody would be expected to diminish catecholamines-mediated activation of TrkB. Cultured cortical neurons were pretreated with BDNF-IgG for 30 minutes followed by exposure to BDNF (10 ng/ml) or catecholamines (100 nM) for 15 minutes. […] It was then determined whether catecholamines could activate TrkB in neurons cultured from mice carrying a null mutation of BDNF.
To further investigate the specificity of catecholamines in inducing TrkB activation, cortical neurons were pretreated with control IgG or norepinephrine IgG, a rabbit polyclonal antibody for norepinephrine, followed by catecholamines.
(§3) It was then determined whether catecholamines could activate TrkB in neurons cultured from mice carrying a null mutation of NET.
(§4) The cell lysates were analyzed by immunoblotting with anti-p-TrkB-Y-816.
as §4
A group of primary cortical neurons were pretreated with 1 mM EDTA, and another group of primary cortical neurons were not pretreated. Both groups of primary cortical neurons were then treated with either Zn (100 μM) or a catecholamine (100 nM) for 15 minutes. The neuronal cell lysates were analyzed by immunoblotting with anti-p-TrkB-Y-816 antibody.

[8] = target: T4, TrkB intracellular domain (ICD) (Homo sapiens, UniProt Q16620); test: In vitro binding assay with purified TrkB ICD and 3H-ligands (Scatchard plot); conditions: purified protein, 25° C., 30 minutes; read-out: TrkB binding constants (Scatchard plot)
T4 construct: purified ECD (extracellular domain) and ICD (intracellular domain) proteins from Trk receptors
T4 sequence (Q16620 455-822 limits assumed): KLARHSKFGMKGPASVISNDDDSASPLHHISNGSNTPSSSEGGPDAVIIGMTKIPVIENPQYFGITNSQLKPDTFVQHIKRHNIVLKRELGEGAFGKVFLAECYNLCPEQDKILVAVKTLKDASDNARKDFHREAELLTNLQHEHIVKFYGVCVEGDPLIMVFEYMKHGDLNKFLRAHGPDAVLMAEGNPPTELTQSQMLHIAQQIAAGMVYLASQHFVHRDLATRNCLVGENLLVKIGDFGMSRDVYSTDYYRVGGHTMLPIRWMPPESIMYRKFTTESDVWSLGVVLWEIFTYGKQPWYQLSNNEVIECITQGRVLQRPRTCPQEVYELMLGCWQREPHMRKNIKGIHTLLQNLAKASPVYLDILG
Description: Purified TrkA and TrkB ECD or ICD proteins were incubated with different ^3H-catecholamines at 25° C. for 30 minutes in 1 ml of binding buffer (50 mM Tris-HCl, pH 7.4, 100 mM NaCl, 5 nM ^3H-catecholamines (32000 cpm)). After the incubation, the reaction mixture was loaded on a Whatman glass-fiber filter (GF-B) (Whatman Inc.; Piscataway, N.J.). The mixture was washed with 3×5 ml washing buffer (50 mM Tris-HCl, pH 7.4). The dried filter paper was put into a small vial and subjected to liquid scintillation counter analysis. The value of the dissociate constant and the number of sites were obtained from Scatchard plots by using the equation r/[L]free =n/Kd−r/Kd, where r is the ratio of the concentration of bound ligand to the total protein concentration and n is the number of binding sites.
To determine whether catecholamines bind TrkB directly, an in vitro binding assay was conducted with purified ECD (extracellular domain) and ICD (intracellular domain) proteins from Trk receptors and ^3H-catecholamines. […] To determine whether the binding by catecholamines to TrkB receptor caused dimerization, GST-TrkB was co-transfected into HEK293 cells with HA-TrkB, followed by BDNF or monoamines treatment for 15 minutes.

TrkB [9] = target: TrkB (Homo sapiens, UniProt Q16620); test: Activation of transfected TrkB in HEK293 cells with or without DAT or NET; assay type: cell-based; set-up: expressed in transfected cells; host or cells: HEK293; conditions: NET transfected HEK293 cells
TrkB (Homo sapiens, UniProt Q16620), sequence (Q16620 32-822, species assumed): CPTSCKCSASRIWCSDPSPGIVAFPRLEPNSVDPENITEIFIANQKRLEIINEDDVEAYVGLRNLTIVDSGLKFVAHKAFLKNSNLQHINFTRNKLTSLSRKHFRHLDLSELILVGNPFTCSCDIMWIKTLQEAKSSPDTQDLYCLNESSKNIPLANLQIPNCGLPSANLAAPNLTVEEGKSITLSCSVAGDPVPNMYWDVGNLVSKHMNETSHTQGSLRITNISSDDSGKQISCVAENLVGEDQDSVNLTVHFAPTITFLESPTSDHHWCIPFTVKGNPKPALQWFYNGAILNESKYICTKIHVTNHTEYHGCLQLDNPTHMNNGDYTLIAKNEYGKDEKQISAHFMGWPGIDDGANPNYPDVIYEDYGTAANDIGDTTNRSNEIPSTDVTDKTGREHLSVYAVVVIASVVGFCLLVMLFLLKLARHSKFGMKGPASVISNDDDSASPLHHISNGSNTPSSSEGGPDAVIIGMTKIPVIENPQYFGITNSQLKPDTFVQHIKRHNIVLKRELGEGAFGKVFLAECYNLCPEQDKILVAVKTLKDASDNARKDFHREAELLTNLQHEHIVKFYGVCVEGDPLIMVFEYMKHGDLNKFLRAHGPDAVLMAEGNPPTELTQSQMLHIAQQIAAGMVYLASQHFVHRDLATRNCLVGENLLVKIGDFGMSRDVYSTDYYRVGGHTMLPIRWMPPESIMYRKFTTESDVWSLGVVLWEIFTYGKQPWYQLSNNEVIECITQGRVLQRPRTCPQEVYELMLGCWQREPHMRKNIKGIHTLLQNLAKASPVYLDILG

TrkB [10] = target: T5, TrkB (Mus musculus, UniProt P15209); assay type: cell-based, mice; conditions: compared to wild-type control neurons
T5 construct: endogenous in cells; host or cells: primary cortical neurons from BDNF-null, TrkB +/- cross, TrkC knockout and NET -/- mice
T5 sequence (P15209 32-821): as the sequence (P15209 32-821 F616A) above, with A585F counted along it
Description: as §3

Row | SMILES | Kainic acid (KA)-provoked neuronal cell death in mouse brain (TrkB F616A knockin mice) | Time at which TrkB activity peaked (TrkB [1]) [h] | TrkB activation in the brains of the mice (TrkB [1]) | Oral bioavailability (TrkB [1]) | Passage through the blood brain barrier (TrkB [1]; mouse, in vivo, po) | Minimal dosage required to activate TrkB (TrkB [1]) [mg/kg] | TrkB activation in mouse brains (TrkB [1]) | TrkB activation in primary cortical neurons (TrkB [2]) | TrkB activation by the compound after K252a or 1NMPP1 pretreatment (TrkB F616A [3]) | Swimming immobility (mice) | Immobility time after 1NMPP1 treatment (mice) | Passage through the blood brain barrier (TrkB [1]; orally administered, mouse brain) | Effect of inhibitor on catecholamine-induced TrkB activation (TrkB F616A [4]) | Effect of K252a pretreatment on catecholamine-triggered TrkB tyrosine phosphorylation (TrkB [5]) | Glutamate-provoked neuronal cell death [6] | Effect of norepinephrine IgG on the agonistic effect of the substance on TrkB activation (TrkB [7]; IgG 15 min, then 300 nM catecholamines 15 min) | Effect of norepinephrine IgG on the agonistic effect of the substance (TrkB [7]; compared to control IgG) | Kd [8] [µM] | Increase of stimulatory activity by overexpression of NET compared to control cells (TrkB [9]) | TrkB activation in NET -/- neurons (TrkB [10])
1 | CN(C)CC(=O)c1ccc(O)c(O)c1 [Compound I-8, α-dimethylamino-3′,4′-dihydroxyacetophenone] | potently suppress; also recorded: robustly repressed | 8 | potently activated TrkB | orally bio-available | can pass through the blood brain barrier | 20 | potently activate TrkB | prominently activated TrkB; also recorded: prominent stimulatory effect | selectively blocked by 1NMPP1 but not K252a | significantly decreased | no significant effect |  |  |  |  |  |  |  |  | 
2 | CC(N)C(=O)c1ccc(O)c(O)c1 (stereo not drawn) [Compound I-11, 2-amino-3′,4′-dihydroxy-propiophenone] | potently suppress; also recorded: robustly repressed | 8 | potently activated TrkB | orally bio-available |  | 10 | potently activate TrkB | prominently activated TrkB; also recorded: prominent stimulatory effect | selectively blocked by 1NMPP1 but not K252a | significantly decreased | still active in decreasing immobility | can pass through the blood brain barrier |  |  |  |  |  |  |  | 
3 | COC(=O)[C@@]1(O)C[C@H]2O[C@]1(C)n1c3ccccc3c3c4c(c5c6ccccc6n2c5c31)C(=O)NC4 [Compound K252a] |  |  |  |  |  |  |  |  |  |  |  |  | robustly inhibited | robustly blocked |  |  |  |  |  | 
4 | NC[C@H](O)c1ccc(O)c(O)c1 [norepinephrine] |  |  |  |  |  |  |  |  |  |  |  |  |  |  | robustly suppressed | selectively inhibited | selectively neutralized | 98 | approximately 100 fold | completely blocked
